This is an account of results in patent US11286256B2, “Bicyclic inhibitors of histone deacetylase” (Alkermes, Inc., priority 2017, dated 2022).

Converted amounts (≈) assume the structure as drawn.

In one data set the target is T1, CYP2D6 (Homo sapiens, UniProt P10635).
T1 construct: Human liver microsomes were obtained from BD Gentest; tissue BD Gentest; host or cells: human liver microsomes
Briefly: CYP inhibition assay in human liver microsomes (2D6). In kind it is in vitro ADME. To be noted: for inhibition of CYP2D6 (in words): 10 μM; for inhibition at 10 min, 10 µM: human liver microsomes. As to the method: (§1) Compounds were tested to evaluate their inhibitory potential on CYP2D6 and CYP3A4 (midazolam) using human liver microsomes. Human liver microsomes were obtained from BD Gentest, and each compound was run in duplicate.
(§2) The test compounds and reference inhibitors (quinidine for 2D6, ketoconazole for 3A4) were plated in a 96-well plate by transferring 8 μL of 10 mM stock solutions of compound in DMSO to 12 μL of acetonitrile. Individual inhibitor spiking solutions were prepared for CYP2D6 and CYP3A4 (8 μL of DMSO stock added to 12 μL of acetonitrile). Next added 400 μL of 0.2 mg/mL HLM to the assay wells and then added 2 μL of 400× test compound into the designated wells on ice. Next, added 200 μL of 0.2 mg/mL HLM to the assay wells and then added 1 μL of reference inhibitor solutions into the designated wells. The following solutions were added (in duplicate) to a 96-well assay plate on ice: The test compounds and reference inhibitors (quinidine for 2D6, ketoconazole for 3A4) were tested using the following experimental procedure:
(§3) 10. Incubate the assay plate at 37° C. 5 min for 3A4, 10 min for 2D6.
(§4) 11. Stop the reaction by adding 120 μL of ACN containing Internal Standard. For CYP3A4, the internal standard is 1′OH-midazolam-D4 (10 μM solution diluted to a final concentration of 0.1 μM by adding 100 μL internal standard stock to 10 mL ACN). For CYP2D6, the internal standard is 1-OH-Bufuralol-maleate-[D9] (49 μM solution diluted to a final concentration of 0.1 μM by adding 20 μL internal standard stock to 10 mL ACN).
(§5) The assessment on CYP isoform inhibition is as follows based on the assay results: if percentage of CYP inhibition is higher than 50%, indicates potent inhibition; if percentage of CYP inhibition is between 30-50%, indicates […]; if percentage of CYP inhibition is less than 30%, indicates slight or no inhibition. If the percentage of CYP inhibition is less than −30%, this indicates the compound may have some kind of activation of this isoform.

The next data set deals with T2, HDAC1 (Homo sapiens, UniProt Q13547).
T2 construct: purchased BPS Bioscience
T2 sequence (Q13547 whole entry): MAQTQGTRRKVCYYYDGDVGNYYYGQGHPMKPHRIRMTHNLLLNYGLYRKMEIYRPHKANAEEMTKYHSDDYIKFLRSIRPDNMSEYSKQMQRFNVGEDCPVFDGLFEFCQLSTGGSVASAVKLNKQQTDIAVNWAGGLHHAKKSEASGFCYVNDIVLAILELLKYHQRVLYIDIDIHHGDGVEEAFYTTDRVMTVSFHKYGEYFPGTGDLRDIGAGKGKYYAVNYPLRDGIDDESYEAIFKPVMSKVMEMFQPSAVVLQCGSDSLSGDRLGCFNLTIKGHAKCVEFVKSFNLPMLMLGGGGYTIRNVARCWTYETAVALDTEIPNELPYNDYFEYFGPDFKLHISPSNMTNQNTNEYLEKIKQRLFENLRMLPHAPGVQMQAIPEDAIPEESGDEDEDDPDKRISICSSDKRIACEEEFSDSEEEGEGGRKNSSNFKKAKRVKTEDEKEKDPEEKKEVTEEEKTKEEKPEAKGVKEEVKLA
As to the kind of experiment: HDAC1 recombinant enzymatic assay. In kind it is biochemical. To be noted: 5 h pre-incubation, 5 nM enzyme; read-out: HDAC recombinant enzymatic IC50 HDAC1. The protocol:
(§6) The following describes an assay protocol for measuring the deacetylation of a peptide substrate by the enzymes HDAC2 or HDAC1.
(§7) All recombinant human HDACs were purchased from BPS Bioscience. The substrate, FAM-TSRHK(AC)KL-CONH, was synthesized at NanoSyn. Final assay reactions contained 100 mM HEPES (pH 7.5), 50 mM KCl, 0.1% BSA, 0.01% Triton X-100, 1% DMSO, 1 uM substrate and 5 nM HDAC enzyme. Enzyme and compounds were pre-incubated at 25° C. for 5 hours and reactions were initiated by addition of substrate. 10 uL reactions were incubated for 17 hours at 25° C. and terminated by the addition of 40 uL of buffer containing 100 mM HEPES (pH 7.5), 0.1% BSA, 0.01% Triton X-100 and 0.05% SDS. Substrate and product peptides present in each sample were separated electrophoretically using the LabChip 3000 capillary electrophoresis instrument. Change in the relative fluorescence intensity of the substrate and product peaks reflects enzyme activity. Reaction progress was determined as the product to sum ratio (PSR):P/(S+P), where P is the peak height of the product peptide and S is the peak height of the substrate peptide. Reactions were performed in duplicate at 12 concentrations, (3× serial dilutions starting at 30 uM). IC50 values were calculated using a 4 Parameter Logistic Model.

Data set [1] concerns the target T3, HDAC2 (Homo sapiens, UniProt Q92769). Briefly: HDAC2 enzymatic inhibition assay in SY5Y cell lysate with HDAC-Glo2 substrate. The note with it: SH-SY5Y cells, 5 h compound incubation, HDAC-Glo 2 reagent. In kind it is cell-based. Further details: host or cells: SH-SY5Y. The protocol: HDAC2 Enzymatic Inhibition Assay in SY5Y Cell Lysate with HDAC-Glo2 Substrate
SH-SY5Y cells (Sigma) were cultured in Eagle's Modified Essential Medium supplemented with 10% fetal bovine serum and pen/strep. Twenty-four hours prior to compound dosing 20 uL of cells were plated in white 384 well plates at a density of 1,500 cells/well. Compounds were serially diluted in neat DMSO and then diluted 1:100 v/v into media without FBS and mixed. Media was removed from the plated cells and the diluted compounds in serum free media (1% v/v final DMSO) were added and incubated at 37.0 for five hours. Ten uL of HDAC-Glo 2 reagent with 0.1% Triton X-100 was then added, the plate was mixed and allowed to develop at room temperature for 100 minutes. Plates were then read with a Spectramax LMax luminometer employing a 0.4 s integration time. Dose response curves were constructed with normalized data where CI-994 at 100 uM was defined as 100% inhibition and DMSO alone as 0% inhibition.

The target in data set [2] is T3, HDAC2. Briefly: HDAC2 recombinant enzymatic assay. In kind it is biochemical. The arrangement: purchased BPS Bioscience. To be noted: 5 h pre-incubation, 5 nM enzyme; read-out: HDAC recombinant enzymatic IC50 HDAC2. The protocol:
as §6, §7

A short description of data set [3]: Aqueous kinetic solubility measurement. The format is physicochemical. The note with it: for solubility at 1 h: aqueous buffer, kinetic from dmso stock, kinetic, 100 mM phosphate buffer pH 7.4, 1% DMSO. As to the method:
Compounds were evaluated for their kinetic solubility in buffer or water. Aliquots of 8 μL of reference and test compound stock solutions (10 mM in DMSO) were added into 792 μL of 100 mM phosphate buffer (0.1 M NaPO4, pH 7.4). Final DMSO concentration is 1%. The sample tubes were shaken for 1 hour (1000 rpm) at room temperature. A calibration curve was prepared using 300 μM spiking solution (SS) in MeOH/ACN(4:1) (SS=add 6 μL 10 mM compound in 194 μL MeOH/ACN(4:1)). Samples were centrifuged for 10 min (12000 rpm) to precipitate undissolved particles, and the supernatants were transferred to a new tube or plate. Supernatants were diluted 10 times and 100 times with 100 mM buffer. Samples were then prepared for analysis by LC-MS/MS (Add 5 μL of compound samples (not diluted, 10 times diluted and 100 times diluted) and standard curve samples to 95 μL of ACN containing internal standard. Internal standards used are Propranolol, Ketoconazole, and Tamoxifen.

Another data set addresses T4, CYP3A4 (Homo sapiens, UniProt P08684).
T4 construct: Human liver microsomes were obtained from BD Gentest; tissue BD Gentest; host or cells: human liver microsomes
As to the kind of experiment: CYP inhibition assay in human liver microsomes (3A4, midazolam). The format is in vitro ADME. To be noted: for inhibition at 5 min, 10 µM: probe midazolam, human liver microsomes, midazolam. The protocol:
as §1, §2, §3, §4, §5

The test system of data set [4] is human myeloid progenitors (CFU-GM). Briefly: Myeloid CFU assay in human bone marrow cells. In kind it is cell-based. As to the method:
(§8) Compounds were tested to evaluate the potential effects on human erythroid and myeloid progenitors using colony forming cell assays. Clonogenic progenitors of human erythroid (CFU-E, BFU-E), granulocyte-monocyte (CFU-GM) and multipotential (CFU-GEMM) lineages were assessed in a semi-solid methylcellulose-based media formulation containing rhlL-3 (10 ng/mL), rhGM-SCF (10 ng/mL), rhSCF (50 ng/mL) and Epo (3 U/mL).
(§9) Normal human bone marrow light density cells derived from normal bone marrow (NorCal Biologics, California) and qualified at ReachBio, were stored in the gaseous phase of liquid nitrogen (−152° C.) until required for the assay. On the day of the experiment, the cells were thawed rapidly, the contents of each vial was diluted in 10 mL of Iscove's modified Dulbecco's medium containing 10% fetal bovine serum (IMDM+10% FBS) and washed by centrifugation (approximately 1200 r.p.m. for 10 minutes, room temperature). The supernatant was discarded and the cell pellets resuspended in a known volume of IMDM+10% FBS. A cell count (3% glacial acetic acid) and viability assessment (trypan blue exclusion test) was performed for the bone marrow sample.
(§10) On the day of the experiment, the compounds were dissolved in DMSO to a stock concentration of 10 mM. Serial dilutions were prepared from the stock concentration to achieve concentrations of 2 and 0.4 mM. When added to the methylcellulose-based media at 1:1000 (v/v), the final test concentrations of 10, 2 and 0.4 μM were achieved. Additionally, 5-FU was evaluated at 1.0, 0.1 and 0.01 μg/mL.
(§11) Clonogenic progenitors of the human erythroid (CFU-E and BFU-E) and myeloid (CFU-GM) lineages were set up in the methylcellulose-based media formulations described above. All compounds were added to the medium to give the final desired concentrations (10, 2 and 0.4 μM). 5-Fluorouracil (Sigma Aldrich) was used as a positive control for progenitor proliferation (inhibition of colony growth) and was introduced to the human bone marrow cultures at 1.0, 0.1, and 0.01 μg/mL. Solvent control cultures (containing no compound but 0.1% DMSO) as well as standard controls (containing no compound and no DMSO) were also initiated.
(§12) Human myeloid and erythroid progenitor assays were initiated at 2.0×10^4 cells per culture. Following 14 days in culture, myeloid and erythroid colonies were assessed microscopically and scored by trained personnel. The colonies were divided into the following categories based on size and morphology: CFU-E, BFU-E, CFU-GM and CFU-GEMM.
(§13) The mean±one standard deviation of three replicate cultures was calculated for progenitors of each category (CFU-E, BFU-E, etc.). Two-tailed t-tests were performed to assess if there was a difference in the number of colonies generated between solvent control and treated cultures. Due to the potential subjectivity of colony enumeration, a p value of less than 0.01 is deemed significant. To calculate the concentration of 50% inhibition of colony growth (IC50) for each compound, a dose response curve was generated plotting the log of the compound concentration versus the percentage of control colony growth using XLfit software (IDBS). The concentration of 50% inhibition of colony growth (IC50) was calculated based on the sigmoid curve fit using Dose-Response, One-Site Model formula: y=A+[(B−A)/(1+((C/x)^D))], where A=the initial value (baseline response), B=maximum response, C=center (drug concentration that provokes a response halfway between A and B) and D=slope of the curve at midpoint. Further, plots and additional dose response curves were generated using GraphPad Prism 7.0.
(§14) Erythroid (CFU-E and BFU-E), myeloid (CFU-GM) and multi-potential (CFU-GEMM) colony enumeration was performed by trained personnel. The distribution of colony types as well as general colony and cellular morphology was analyzed. For statistical analysis colony numbers in compound treated cultures were compared to the solvent control cultures. […]

Data set [5] relates to human erythroid progenitors (CFU-E, BFU-E). Briefly: Erythroid CFU assay in human bone marrow cells. In kind it is cell-based. The protocol: as §8, §9, §10, §11, §12, §13, §14
Setting [6] is: 10 μM, 14 days culture, human bone marrow cells.

T1 sequence (P10635 whole entry): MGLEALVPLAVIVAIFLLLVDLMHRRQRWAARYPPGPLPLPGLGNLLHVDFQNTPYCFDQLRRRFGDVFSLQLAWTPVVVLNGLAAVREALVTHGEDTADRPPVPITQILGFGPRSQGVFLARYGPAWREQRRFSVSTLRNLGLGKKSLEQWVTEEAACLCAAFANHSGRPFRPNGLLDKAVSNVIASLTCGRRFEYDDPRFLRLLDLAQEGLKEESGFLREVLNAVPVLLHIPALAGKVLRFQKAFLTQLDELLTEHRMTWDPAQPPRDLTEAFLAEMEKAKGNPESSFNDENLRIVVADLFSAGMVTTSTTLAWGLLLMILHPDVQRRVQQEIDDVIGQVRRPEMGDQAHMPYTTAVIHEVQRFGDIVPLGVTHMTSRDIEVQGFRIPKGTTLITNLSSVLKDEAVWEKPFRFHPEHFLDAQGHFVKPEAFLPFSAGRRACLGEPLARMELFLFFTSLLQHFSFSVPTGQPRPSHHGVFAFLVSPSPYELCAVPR
T3 sequence (Q92769 whole entry): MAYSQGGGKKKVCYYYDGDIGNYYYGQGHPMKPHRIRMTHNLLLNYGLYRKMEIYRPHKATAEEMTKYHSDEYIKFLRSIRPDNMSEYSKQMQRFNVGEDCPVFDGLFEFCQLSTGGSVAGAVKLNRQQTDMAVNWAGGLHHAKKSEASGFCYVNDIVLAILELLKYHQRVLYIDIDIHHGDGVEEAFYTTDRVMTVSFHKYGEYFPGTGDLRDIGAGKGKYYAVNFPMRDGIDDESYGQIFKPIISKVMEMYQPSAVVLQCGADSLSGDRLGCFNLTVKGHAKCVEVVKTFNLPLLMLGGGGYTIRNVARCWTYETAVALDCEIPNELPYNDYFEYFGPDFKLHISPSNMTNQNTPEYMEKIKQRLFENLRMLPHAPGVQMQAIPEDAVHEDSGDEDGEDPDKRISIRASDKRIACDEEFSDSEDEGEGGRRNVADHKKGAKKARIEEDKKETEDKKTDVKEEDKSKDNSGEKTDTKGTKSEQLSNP
T4 sequence (P08684 whole entry): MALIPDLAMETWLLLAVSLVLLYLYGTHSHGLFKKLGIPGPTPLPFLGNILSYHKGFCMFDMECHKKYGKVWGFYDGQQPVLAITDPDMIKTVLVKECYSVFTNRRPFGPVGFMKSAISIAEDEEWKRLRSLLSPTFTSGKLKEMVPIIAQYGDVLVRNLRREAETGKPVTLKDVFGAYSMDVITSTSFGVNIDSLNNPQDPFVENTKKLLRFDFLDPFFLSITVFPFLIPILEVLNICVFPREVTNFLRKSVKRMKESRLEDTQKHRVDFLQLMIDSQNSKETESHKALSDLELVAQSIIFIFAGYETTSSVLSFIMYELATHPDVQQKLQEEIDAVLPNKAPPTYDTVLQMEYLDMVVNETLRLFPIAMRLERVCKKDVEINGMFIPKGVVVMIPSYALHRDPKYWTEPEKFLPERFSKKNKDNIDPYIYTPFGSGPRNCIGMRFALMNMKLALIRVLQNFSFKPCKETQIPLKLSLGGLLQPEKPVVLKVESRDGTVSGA

Take `Nc1ccc(-c2ccc(F)cc2)nc1NC(=O)N1Cc2cccnc2C1` [Comparator F]: the “inhibition of CYP2D6 (in words)” value against CYP2D6 is listed as “high levels”. Moreover, on CYP2D6, the inhibition at 10 min, 10 µM stood at 62%. In addition, the IC50 at HDAC1 was 79 nM; on HDAC2 [1] it was 394 nM; on HDAC2 [2], 304 nM. In data set [3], the “solubility (in words)” value was “extremely low”. The compound further registered a solubility at 1 h in data set [3] of 1 µM (≈ 0.349 µg/mL). For the same compound, the inhibition at 5 min, 10 µM against CYP3A4 was -4%.

For `Nc1ccc(-c2ccc(F)cc2)nc1NC(=O)N1Cc2ccncc2C1` [Comparator G], the “inhibition of CYP2D6 (in words)” value at CYP2D6 is given as “inhibited at high levels”. For the same compound, the inhibition at 10 min, 10 µM on CYP2D6 came out at 94%. The IC50 at HDAC1 is 143 nM; on HDAC2 [1] it was 639 nM; at HDAC2 [2], 335 nM. This compound also registered a solubility at 1 h in data set [3] of 55 µM (≈ 19.2 µg/mL). The “inhibition of CYP3A4 (in words)” value against CYP3A4 (10 μM) is given as “inhibited at high levels”. For the same compound, the inhibition at 5 min, 10 µM against CYP3A4 was 65%.

Take `Cc1cc2c(cn1)CN(C(=O)Nc1nc(-c3ccc(F)cc3)ccc1N)C2` [Comparator H]: the inhibition at 10 min, 10 µM against CYP2D6 was 57%. For the same compound, the IC50 is 90 nM on HDAC1, 621 nM at HDAC2 [1] and 214 nM on HDAC2 [2]. The solubility at 1 h in data set [3] worked out at 78 µM (≈ 28.3 µg/mL). The inhibition at 5 min, 10 µM against CYP3A4 turned out to be 28%.

In the case of `COCc1cc2c(cn1)CN(C(=O)Nc1nc(-c3ccc(F)cc3)ccc1N)C2` [Comparator I], the inhibition at 10 min, 10 µM on CYP2D6 worked out at 2%. In data set [4] (setting [6]), the “CFU % Control remaining @ 10 μM Myeloid” value was found to be 59%. The “CFU % Control remaining @ 10 μM Erythroid” value in data set [5] (setting [6]) turned out to be 23%. The IC50 at HDAC2 [1] amounted to 666 nM. This compound also displayed a solubility at 1 h in data set [3] of 121 µM (≈ 47.6 µg/mL). The inhibition at 5 min, 10 µM at CYP3A4 was 33%.

Turning to `O=c1[nH]cc(F)c(=O)[nH]1` [Compound 5-FU, 5-Fluorouracil], in data set [4] (1.0, 0.1 and 0.01 μg/mL), the “inhibitory effects on myeloid colony growth (positive control, in words)” value is given as “exactly as expected”. Also, the “inhibitory effects on erythroid colony growth (positive control, in words)” value in data set [5] (1.0, 0.1 and 0.01 μg/mL) is given as “exactly as expected”.
